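Where inhibition never reached the appropriate level, the endpoint shown equals the highest concentration tested. Otherwise, values were interpolated linearly from a five-concentration, 48-hour dose response in 96-well plates. The concentration for 50% growth inhibition is given as GI50. TGI is the concentration that stops growth completely.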
What was measured:
Assay in all cases: growth of human tumour cells (NCI), 48 h
786-0 renal = test system: 786-0 renal
A498 renal = test system: A498 renal
A549 NSCLC = test system: A549 NSCLC
ACHN renal = test system: ACHN renal
BT-549 breast = test system: BT-549 breast
CAKI-1 renal = test system: CAKI-1 renal
CCRF-CEM leukemia = test system: CCRF-CEM leukemia
DU-145 prostate = test system: DU-145 prostate
EKVX NSCLC = test system: EKVX NSCLC
HCC-2998 colon = test system: HCC-2998 colon
HCT-116 colon = test system: HCT-116 colon
HL-60(TB) leukemia = test system: HL-60(TB) leukemia
HOP-92 NSCLC = test system: HOP-92 NSCLC
HS 578T breast = test system: HS 578T breast
HT29 colon = test system: HT29 colon
IGROV1 ovarian = test system: IGROV1 ovarian
K-562 leukemia = test system: K-562 leukemia
KM12 colon = test system: KM12 colon
LOX IMVI melanoma = test system: LOX IMVI melanoma
M14 melanoma = test system: M14 melanoma
MALME-3M melanoma = test system: MALME-3M melanoma
MCF7 breast = test system: MCF7 breast
MDA-MB-231 breast = test system: MDA-MB-231 breast
MDA-MB-435 = test system: MDA-MB-435
MDA-MB-468 breast = test system: MDA-MB-468 breast
MOLT-4 leukemia = test system: MOLT-4 leukemia
NCI-H226 lung = test system: NCI-H226 lung
NCI-H23 lung = test system: NCI-H23 lung
NCI-H460 lung = test system: NCI-H460 lung
NCI-H522 lung = test system: NCI-H522 lung
NCI/ADR-RES ovarian = test system: NCI/ADR-RES ovarian
OVCAR-3 ovarian = test system: OVCAR-3 ovarian
OVCAR-4 ovarian = test system: OVCAR-4 ovarian
OVCAR-5 ovarian = test system: OVCAR-5 ovarian
OVCAR-8 ovarian = test system: OVCAR-8 ovarian
RPMI-8226 leukemia = test system: RPMI-8226 leukemia
SF-268 CNS = test system: SF-268 CNS
SF-295 CNS = test system: SF-295 CNS
SF-539 CNS = test system: SF-539 CNS
SK-MEL-2 melanoma = test system: SK-MEL-2 melanoma
SK-MEL-28 melanoma = test system: SK-MEL-28 melanoma
SK-MEL-5 melanoma = test system: SK-MEL-5 melanoma
SK-OV-3 ovarian = test system: SK-OV-3 ovarian
SN12C renal = test system: SN12C renal
SNB-19 CNS = test system: SNB-19 CNS
SNB-75 CNS = test system: SNB-75 CNS
SR leukemia = test system: SR leukemia
SW-620 colon = test system: SW-620 colon
U251 CNS = test system: U251 CNS
UACC-257 melanoma = test system: UACC-257 melanoma
UACC-62 melanoma = test system: UACC-62 melanoma
COLO 205 colon = test system: COLO 205 colon
HCT-15 colon = test system: HCT-15 colon
HOP-62 NSCLC = test system: HOP-62 NSCLC
PC-3 prostate = test system: PC-3 prostate
RXF 393 renal = test system: RXF 393 renal
T-47D breast = test system: T-47D breast
TK-10 renal = test system: TK-10 renal
UO-31 renal = test system: UO-31 renal

## CCCn1cc(-c2nc(Nc3ccc(C(=O)NCCCCNc4cccc5c4C(=O)N(C4CCC(=O)NC4=O)C5=O)cc3)nc3[nH]ccc23)cn1 (stereo not drawn)
786-0 renal
  GI50: 0.136 µM
  TGI: > 100 µM
A498 renal
  GI50: 0.157 µM
  TGI: > 100 µM
A549 NSCLC
  GI50: 0.119 µM
  TGI: > 100 µM
ACHN renal
  GI50: > 100 µM
  TGI: > 100 µM
BT-549 breast
  GI50: < 0.01 µM
  TGI: < 0.01 µM
CAKI-1 renal
  GI50: 0.19 µM
  TGI: > 100 µM
CCRF-CEM leukemia
  GI50: < 0.01 µM
  TGI: < 0.01 µM
DU-145 prostate
  GI50: > 100 µM
  TGI: > 100 µM
EKVX NSCLC
  TGI: > 100 µM
HCC-2998 colon
  GI50: < 0.01 µM
  TGI: > 100 µM
HCT-116 colon
  GI50: 27.4 µM
  TGI: > 100 µM
HL-60(TB) leukemia
  GI50: < 0.01 µM
  TGI: 0.516 µM
HOP-92 NSCLC
  GI50: < 0.01 µM
  TGI: < 0.01 µM
HS 578T breast
  GI50: < 0.01 µM
  TGI: > 100 µM
HT29 colon
  GI50: 0.166 µM
  TGI: > 100 µM
IGROV1 ovarian
  GI50: 0.0117 µM
  TGI: > 100 µM
K-562 leukemia
  GI50: 0.0368 µM
  TGI: > 100 µM
KM12 colon
  GI50: 0.0374 µM
  TGI: > 100 µM
LOX IMVI melanoma
  GI50: > 100 µM
  TGI: > 100 µM
M14 melanoma
  GI50: 0.0817 µM
  TGI: > 100 µM
MALME-3M melanoma
  GI50: < 0.01 µM
  TGI: < 0.01 µM
MCF7 breast
  GI50: 0.0339 µM
  TGI: > 100 µM
MDA-MB-231 breast
  GI50: < 0.01 µM
  TGI: < 0.01 µM
MDA-MB-435
  GI50: 0.0686 µM
  TGI: > 100 µM
MDA-MB-468 breast
  GI50: < 0.01 µM
  TGI: < 0.01 µM
MOLT-4 leukemia
  GI50: < 0.01 µM
NCI-H226 lung
  GI50: 0.0319 µM
  TGI: > 100 µM
NCI-H23 lung
  GI50: 18.6 µM
  TGI: > 100 µM
NCI-H460 lung
  GI50: > 100 µM
  TGI: > 100 µM
NCI-H522 lung
  GI50: > 100 µM
  TGI: > 100 µM
NCI/ADR-RES ovarian
  GI50: > 100 µM
  TGI: > 100 µM
OVCAR-3 ovarian
  GI50: 0.424 µM
  TGI: > 100 µM
OVCAR-4 ovarian
  GI50: 0.0354 µM
  TGI: > 100 µM
OVCAR-5 ovarian
  GI50: 0.243 µM
  TGI: > 100 µM
OVCAR-8 ovarian
  GI50: < 0.01 µM
  TGI: > 100 µM
RPMI-8226 leukemia
  GI50: 0.157 µM
  TGI: > 100 µM
SF-268 CNS
  GI50: 0.0257 µM
  TGI: > 100 µM
SF-295 CNS
  GI50: 0.209 µM
  TGI: > 100 µM
SF-539 CNS
  GI50: 0.0676 µM
  TGI: > 100 µM
SK-MEL-2 melanoma
  GI50: 0.0536 µM
  TGI: > 100 µM
SK-MEL-28 melanoma
  GI50: 0.123 µM
  TGI: > 100 µM
SK-MEL-5 melanoma
  GI50: 0.03 µM
  TGI: 0.188 µM
SK-OV-3 ovarian
  GI50: 0.425 µM
  TGI: > 100 µM
SN12C renal
  GI50: 0.0166 µM
  TGI: > 100 µM
SNB-19 CNS
  GI50: < 0.0124 µM
  TGI: > 100 µM
SNB-75 CNS
  GI50: < 0.01 µM
  TGI: 2.06 µM
SR leukemia
  GI50: 0.319 µM
  TGI: > 100 µM
SW-620 colon
  GI50: < 0.01 µM
  TGI: > 100 µM
U251 CNS
  GI50: 0.589 µM
  TGI: > 100 µM
UACC-257 melanoma
  GI50: > 100 µM
  TGI: > 100 µM
UACC-62 melanoma
  GI50: > 100 µM
  TGI: > 100 µM

## N#C/C(=C1/C(=O)Nc2ccccc21)c1nnc(NC(=O)c2ccc(-n3c(=O)[nH]c4ccccc4c3=O)cc2)s1
786-0 renal
  GI50: > 100 µM
  TGI: > 100 µM
A498 renal
  GI50: > 100 µM
  TGI: > 100 µM
A549 NSCLC
  GI50: 54.7 µM
  TGI: > 100 µM
ACHN renal
  GI50: 53.8 µM
  TGI: > 100 µM
BT-549 breast
  GI50: 39.4 µM
  TGI: > 100 µM
CAKI-1 renal
  GI50: 39 µM
  TGI: > 100 µM
CCRF-CEM leukemia
  GI50: 22.2 µM
  TGI: 64.5 µM
COLO 205 colon
  GI50: 22.1 µM
  TGI: 79.8 µM
DU-145 prostate
  GI50: 53.6 µM
  TGI: > 100 µM
EKVX NSCLC
  GI50: 46.1 µM
  TGI: > 100 µM
HCC-2998 colon
  GI50: 39.8 µM
  TGI: > 100 µM
HCT-116 colon
  GI50: 32.6 µM
  TGI: > 100 µM
HCT-15 colon
  GI50: 27.3 µM
  TGI: > 100 µM
HL-60(TB) leukemia
  GI50: 13.6 µM
  TGI: 45.4 µM
HOP-62 NSCLC
  GI50: > 100 µM
  TGI: > 100 µM
HOP-92 NSCLC
  GI50: 33.8 µM
  TGI: > 100 µM
HS 578T breast
  GI50: 27.4 µM
  TGI: > 100 µM
HT29 colon
  GI50: 31.7 µM
  TGI: > 100 µM
IGROV1 ovarian
  GI50: 40.5 µM
  TGI: > 100 µM
K-562 leukemia
  GI50: 26.1 µM
  TGI: > 100 µM
KM12 colon
  GI50: 33.4 µM
  TGI: > 100 µM
LOX IMVI melanoma
  GI50: 21.6 µM
  TGI: > 100 µM
M14 melanoma
  GI50: 41.2 µM
  TGI: > 100 µM
MALME-3M melanoma
  GI50: 45.6 µM
  TGI: > 100 µM
MCF7 breast
  GI50: 18.3 µM
  TGI: > 100 µM
MDA-MB-231 breast
  GI50: 38.4 µM
  TGI: > 100 µM
MDA-MB-435
  GI50: 17.2 µM
  TGI: 35.8 µM
MDA-MB-468 breast
  GI50: 11 µM
  TGI: 56.1 µM
MOLT-4 leukemia
  GI50: 20.7 µM
  TGI: 60.9 µM
NCI-H226 lung
  GI50: 17.6 µM
  TGI: > 100 µM
NCI-H23 lung
  GI50: 45.2 µM
  TGI: > 100 µM
NCI-H460 lung
  GI50: 26 µM
  TGI: > 100 µM
NCI-H522 lung
  GI50: 13.2 µM
  TGI: 71.7 µM
NCI/ADR-RES ovarian
  GI50: 33.8 µM
  TGI: > 100 µM
OVCAR-3 ovarian
  GI50: 10.9 µM
  TGI: 71.6 µM
OVCAR-4 ovarian
  GI50: 23.1 µM
  TGI: > 100 µM
OVCAR-5 ovarian
  GI50: > 100 µM
  TGI: > 100 µM
OVCAR-8 ovarian
  GI50: 67.6 µM
  TGI: > 100 µM
PC-3 prostate
  GI50: 30.3 µM
  TGI: > 100 µM
RPMI-8226 leukemia
  GI50: 27.1 µM
  TGI: > 100 µM
RXF 393 renal
  GI50: 14.5 µM
  TGI: > 100 µM
SF-268 CNS
  GI50: 34.9 µM
  TGI: > 100 µM
SF-295 CNS
  GI50: 45.9 µM
  TGI: > 100 µM
SF-539 CNS
  GI50: 48.3 µM
  TGI: > 100 µM
SK-MEL-2 melanoma
  GI50: > 100 µM
  TGI: > 100 µM
SK-MEL-28 melanoma
  GI50: 65.9 µM
  TGI: > 100 µM
SK-MEL-5 melanoma
  GI50: 32.2 µM
  TGI: > 100 µM
SK-OV-3 ovarian
  GI50: > 100 µM
  TGI: > 100 µM
SN12C renal
  GI50: 58.3 µM
  TGI: > 100 µM
SNB-19 CNS
  GI50: > 100 µM
  TGI: > 100 µM
SNB-75 CNS
  GI50: 16.2 µM
  TGI: > 100 µM
SR leukemia
  GI50: 33.1 µM
  TGI: > 100 µM
SW-620 colon
  GI50: 29.5 µM
  TGI: > 100 µM
T-47D breast
  GI50: 11.2 µM
  TGI: > 100 µM
TK-10 renal
  GI50: > 100 µM
  TGI: > 100 µM
U251 CNS
  GI50: > 100 µM
  TGI: > 100 µM
UACC-257 melanoma
  GI50: 46.2 µM
  TGI: > 100 µM
UACC-62 melanoma
  GI50: 47.4 µM
  TGI: > 100 µM
UO-31 renal
  GI50: 31.8 µM
  TGI: > 100 µM

Reference: PubChem BioAssay (NCI)
